This note sets out measurements from a melting point compilation (Tetko et al.; mined from patent text by program, amines drawn as free bases though some values may be those of a salt).

In the case of `O=C(NC1(C(=O)O)CCCCC1)OCc1ccccc1`, the melting point (commonly the temperature of the solid-liquid transition) fell in the range of 152 to 154 °C.

In the case of `CCCCCCCCCCOc1ccc(-c2c(C)[nH]c(=O)n2C2CCCCC2)cc1`, the melting point lay in the range of 137 to 138 °C.

`CCCSc1nccn2c(=O)c(C(=O)OCC)cnc12` came in with a melting point of 112 °C.

`CCOC(=O)c1cnc2snc(C)c2c1NCS(=O)(=O)c1ccc(Oc2ccc(Cl)cc2)cc1` came in with a melting point of 117 to 120 °C.

`CCCS(=O)(=O)c1ccc2c(c1)C1(O)C(C2)SC(=NCC)N1CC` (configuration not stated): the melting point came to 136 °C.

Turning to `C/C=C/C[C@@H](C)[C@@H](O)[C@H](NC)C(=O)O`, the melting point is 228 to 233 °C.

For the compound `C=CCOc1ccccc1/C=C\C(=O)O`, the melting point lay in the range of 80 to 82 °C.

In turn, `O=C(Nc1cc(C(F)(F)F)cc(C(F)(F)F)c1)Nc1cc(C(F)(F)F)ccc1Oc1ccccc1C(=O)O` had a melting point of 229 to 231 °C.

`O=C(O)CCCCCCCn1cnc(-c2ccccc2)c1-c1ccccc1` displayed a melting point of 130 °C.

Take `O=C1c2cc([N+](=O)[O-])cc([N+](=O)[O-])c2OC12CC2`: the melting point was 158 to 161 °C.

With `CCCCCCCC(=O)N1CCc2nnc(NN=C(C)C)cc2C1`, the melting point was 118 to 121 °C.

For `c1ccc2c(c1)CCc1c(CN3CCN(c4cc5ccccc5cn4)CC3)n[nH]c1-2`, the melting point was 228 to 230 °C.

The compound `CC#CCNC(=NC#N)SC` registered a melting point of 180 to 183 °C.

`CC(C)(C)C1=CCC(C(=O)O)CC1` (configuration not stated) displayed a melting point of 141 to 143 °C.

`COc1cc(N)c(Cl)cc1C(=O)NC1CCN(C(C)CC(C(=O)N(C)C)(c2ccccc2)c2ccccc2)CC1O` (configuration not stated) had a melting point of 132 °C.

`CCOC(=O)c1cnc2nn(C)cc2c1NC(C)C` registered a melting point of 168 to 170 °C.

The compound `CC(=O)c1ccc(S(=O)(=O)NCCN(C)C)cc1` had a melting point of 87 to 89 °C.

Compound `CN1CCN(c2ccc(Nc3ncc4c(n3)S/C(=C/c3ccc(F)cc3)C(=O)N4)cc2)CC1` displayed a melting point of 172 to 175 °C.

For `Cc1cc(C)c(Nc2nc(C)ccc2S(=O)(=O)c2ccc(OCc3ccc(F)cc3)cc2)c(C)c1`, the melting point fell in the range of 178 to 180 °C.

For the compound `CN(C)C=C(C=CC#N)c1ccccc1`, the melting point is 77 to 83 °C.

The compound `CC(C)n1nc(-c2sc(C(=O)N3CCOCC3)nc2-c2ccccc2)ccc1=O` showed a melting point of 162 °C.

`Nc1cc(S(N)(=O)=O)sc1Cl` yielded a melting point of 138 °C.

`CC(=NO)c1ccccc1N`: the melting point was 55 to 60 °C.

In turn, `O=C(O)c1ccc(/C=C/c2ccc(O)c(C34CC5CC(CC(C5)C3)C4)c2)cc1` had a melting point of 279 to 280 °C.

`CC1Cc2c(N3CCCC3CO)c(F)cc3c(=O)c(C(=O)O)cn1c23` (configuration not stated) gave a melting point of 235 to 237 °C.

Take `CNc1nnc(C(C)(CCl)CCl)s1`: the melting point fell in the range of 105 to 107 °C.

For the compound `O=C(O)c1cc(N=Nc2cc(C(=O)O)cc(SCc3ccccc3)c2C(=O)c2ccccc2)c(C(=O)c2ccccc2)c(SCc2ccccc2)c1`, the melting point is 218 to 220 °C.

In turn, `c1ccc2sc3cc4oc5ccccc5sc4cc3oc2c1` gave a melting point of 223 °C.

`CN1CCC(c2nn(C(=O)c3ccc(F)cc3)c3ccccc23)CC1` had a melting point of 132 to 133 °C.

The compound `C#CCOc1cc(-c2ncnc(C(F)F)c2Cl)c(F)cc1Cl` registered a melting point of 93 to 95 °C.

`CC(=O)N1C(C(=O)O)CSC1c1ccccc1OCCO[N+](=O)[O-]` (configuration not stated) returned a melting point of 159 to 162 °C.

`CCCCOc1ccc([N+](=O)[O-])c(C(=O)O)c1` yielded a melting point of 82 to 84 °C.

Regarding `CCOC(=O)CCc1cc(O)ccc1-c1ccc(-c2cccnc2)c(CO)c1`, the melting point is 46 to 48 °C.

Turning to `c1csc(N2CCN(Cc3ccc4sccc4c3)CC2)n1`, the melting point was in the range of 80 to 82 °C.

In turn, `CC1CCCC2C1N2CC(O)Cn1ccnc1[N+](=O)[O-]` (configuration not stated) registered a melting point of 124 °C.

As to `COC(=O)Nc1nccc(Oc2ccc3c(C(=O)Nc4ccc(CN5CCN(C)CC5)c(C(F)(F)F)c4)csc3c2)n1`, the melting point is 205 to 206 °C.

As to `COc1ccc(N2CCN(CCC3OCCc4c(Br)cccc43)CC2)cc1` (configuration not stated), the melting point lay within 105 to 106 °C.

Compound `OCc1cn(-c2ccc(SC(F)(F)F)cc2)cn1` showed a melting point of 145 to 147 °C.

Consider `Cc1nn(C)c2c1N=C(C1CC1)N1CC(C)N=C21` (configuration not stated), for which the melting point was 107 to 110 °C.

Compound `O=Cc1c2ccccc2c(C=O)c2cc(Cl)ccc12` came in with a melting point of 192 to 195 °C.

Take `CC(C)(Cc1ccc(Cl)cc1)C(O)(COc1ccc(Cl)cc1)c1cccnc1` (configuration not stated): the melting point fell in the range of 46 to 47 °C.

`O=C(NC[C@H]1O[C@@H]1c1ccccc1)C(F)(F)F` (racemic) had a melting point of 79 °C.

Consider `CC1(C)CC(=O)Nc2ccc(-c3cccc(Cl)c3)cc21`, for which the melting point was in the range of 211 to 215 °C.

Turning to `CC(C)c1cc(-c2ccc(N)c3ccccc23)nc(N)n1`, the melting point was in the range of 185 to 186 °C.

`Cc1nc(N)c2nc(C)n(CCCNC(=O)C(C)C)c2c1C`: the melting point lay in the range of 178 to 179 °C.

Compound `OCC1Cc2c(cc(Cl)c3c(-c4ccccc4F)noc23)O1` (configuration not stated) gave a melting point of 110 to 111 °C.

On to `Oc1cccc(CN2CCOCC2)c1`, for which the melting point lay within 113 to 115 °C.

On to `Cc1cc(-c2nc3ccc(CCN4CCCC4)cc3c(=O)[nH]2)cc(C)n1`, for which the melting point is 212 to 213 °C.

On to `O=C1CCC(N2Cc3c(OCC4COc5ccccc5C4)cccc3C2=O)C(=O)N1` (configuration not stated), for which the melting point lay within 258 to 260 °C.

In turn, `c1ccc(COc2ccc(CCCCn3ccnc3)cc2)cc1` registered a melting point of 97 to 98 °C.

In the case of `CC(C)(C#N)c1cc(Cn2cncn2)cc(-c2ccc(OS(N)(=O)=O)cc2)c1`, the melting point lay in the range of 74 to 76 °C.

For `CCOC(=O)c1cc(Cl)cc(NCS(=O)(=O)c2ccc(Cl)cc2)c1Cl`, the melting point lay in the range of 173 to 175 °C.

Take `CCCc1nc2c(N)nc(C)c(C)c2n1CC(C)(C)NS(C)(=O)=O`: the melting point lay in the range of 85 to 93 °C.

In the case of `BrCc1ccccc1Oc1ccc(Br)cc1`, the melting point lay in the range of 56 to 58 °C.

The compound `O=C1NC(Cc2ccccc2)=C2OCOCOC2C(Cc2ccccc2)N1` (configuration not stated) registered a melting point of 125 to 130 °C.

With `Cc1ccccc1C(=O)Nc1ccc(C(=O)N2CCS(=O)c3ccccc32)cc1` (configuration not stated), the melting point lay within 240 to 241 °C.

Take `CC(CO)Nc1nc(-c2ccc(Br)cc2)cs1` (configuration not stated): the melting point fell in the range of 100 to 101 °C.

Take `NC(=O)N(O)CC(=O)Nc1cccc(OCc2ccccc2)c1`: the melting point lay in the range of 177 to 178 °C.

The compound `CN(C(=O)CN(C(=O)CNC(=O)Nc1cccc(O)c1)c1ccccc1)c1ccccc1` gave a melting point of 180 °C.

In turn, `CCOC(=O)c1cn(-c2nnc(C)s2)c2cc(F)c(F)cc2c1=O` gave a melting point of 170 to 173 °C.

For the compound `COC(=S)c1ccncc1Cc1ccc(OC)cc1`, the melting point is 99 to 100 °C.

`NN=CNCC(=O)NC1CCCCC1` came in with a melting point of 232 to 234 °C.

For `COC(=O)C(=C(/C)c1cc(OC)cc(OC)c1)/C(=C\c1ccccc1)C(=O)NN1CCN(C)CC1`, the melting point lay within 117 to 121 °C.

`OC[C@@H](O)CCc1ccccc1` registered a melting point of 34 to 36 °C.

The compound `Cc1cc(-c2ccc(F)cc2)c(C=CC=O)o1` showed a melting point of 89 to 90 °C.

With `CCCCCCc1ccc2c3ccc(CO)cc3n(C)c2c1`, the melting point was in the range of 90 to 91 °C.

Turning to `O=C(Nc1ccccc1C(F)(F)F)c1cc(-c2ccc(F)cc2F)ccc1O`, the melting point fell in the range of 180 to 181 °C.

Turning to `O=C1C(CCC(O)c2ccc(F)cc2)C(c2ccc(-c3ccccc3O)cc2)N1c1ccc(F)cc1` (configuration not stated), the melting point is 101 °C.

On to `COC1C(O)C(CO)OC1n1cnc2c(N)nc(F)nc21` (configuration not stated), for which the melting point fell in the range of 239 to 241 °C.

For the compound `O=C(O)C(O)C1CCN(Cc2ccccc2)C1` (configuration not stated), the melting point lay in the range of 174 to 176 °C.

In turn, `COc1ccc(C2=NN(c3ccc(OCC(N)=O)cc3)C(=O)C(C)(C)C2)cc1OC` had a melting point of 184 to 187 °C.

Regarding `O=c1c2ccccc2[nH]n1-c1ccccc1F`, the melting point is 156 to 159 °C.

Turning to `CN1CCCC1=Cc1ccc([N+](=O)[O-])cc1[N+](=O)[O-]`, the melting point was 188 to 190 °C.

The compound `NCCc1cccc(N2CCN(c3ccc(CCC(=O)O)cc3)C2=O)c1` had a melting point of more than 250 °C.

Regarding `CCc1[nH]nc2c1C(=O)c1c(NC(=O)CN3CCC(CN)CC3)cccc1-2`, the melting point fell in the range of 174 to 176 °C.

In turn, `Cc1ccc(C(O[Si](C)(C)C(C)(C)C)C(N)=O)cc1` (configuration not stated) came in with a melting point of 108 to 110 °C.

Consider `O=C(O)c1c(-c2ccc(F)c(Cl)c2)c2ccccc2n1Cc1cc2c(cc1Cl)OCO2`, for which the melting point was 210 to 211 °C.

As to `CSc1ncc(C(=O)N(C)Cc2cc(C(F)(F)F)cc(C(F)(F)F)c2)c(-c2ccccc2)n1`, the melting point lay within 119 to 120 °C.

In turn, `CC(=O)Nc1[nH]c(-c2ccc(O)cc2)nc1C` displayed a melting point of 277 to 279 °C.

With `CCc1nc2c(N)nc3cc(OCc4ccc(C(=O)OC)o4)ccc3c2s1`, the melting point is 184 to 186 °C.

Consider `COCc1nnc(-c2cccnc2)n1-c1c(Cl)c(C)cc2[nH]c(=O)c(=O)[nH]c12`, for which the melting point lay in the range of 229 to 231 °C.

In turn, `NC(=O)N(O)Cc1cccs1` showed a melting point of 112 °C.

`CNc1ccc(C(=O)Nc2cccc(-c3nc(NC)nc4cc(OC)c(OC)cc34)c2)cn1`: the melting point lay in the range of 193 to 195 °C.

For the compound `Cc1cc(Cl)n2nc(CN=[N+]=[N-])nc2n1`, the melting point lay in the range of 130 to 132 °C.

For the compound `Cc1cc(Nc2ccc(S(F)(F)(F)(F)F)cc2)c(S(C)(=O)=O)cc1C(=O)O`, the melting point was in the range of 106 to 109 °C.

Take `Cc1cccc(NC(=O)NCC(=O)N(CC(=O)N(C)c2cccc(C)c2)c2ccccc2)c1`: the melting point came to 165 °C.

`O=P(NP(=S)(Oc1ccccc1)Oc1ccccc1)(Oc1ccccc1)Oc1ccccc1` showed a melting point of 103 to 105 °C.

`ClC(Cl)(Cl)c1cnnc2ccccc12`: the melting point came to 137 °C.

`CCOC(=O)CCCCCn1c(=O)[nH]c2ccccc2c1=O` showed a melting point of 103 to 104 °C.

`COc1ccc(NC(=O)c2nnn(Cc3ccc(F)cc3)c2C)cc1OC` had a melting point of 120 °C.

For `CCn1ncc(C(=O)c2ccc(S(C)(=O)=O)c(CO)c2Cl)c1O`, the melting point is 70 to 76 °C.

`CC1(C)OC(=O)C(Cc2c[nH]c3ccc(Br)cc23)C(=O)O1`: the melting point lay within 179 to 181 °C.
